Here are results for 4 compounds from ChEMBL document CHEMBL4342488, “Structure-Activity Relationship Study of Covalent Pan-phosphatidylinositol 5-Phosphate 4-Kinase Inhibitors” (ACS Med Chem Lett, 2020).

SMILES strings stand for the structures.

For test [1], the target named is T1, Phosphatidylinositol 5-phosphate 4-kinase type-2 gamma (Homo sapiens, UniProt Q8TBX8).
T1 sequence (Q8TBX8 whole entry): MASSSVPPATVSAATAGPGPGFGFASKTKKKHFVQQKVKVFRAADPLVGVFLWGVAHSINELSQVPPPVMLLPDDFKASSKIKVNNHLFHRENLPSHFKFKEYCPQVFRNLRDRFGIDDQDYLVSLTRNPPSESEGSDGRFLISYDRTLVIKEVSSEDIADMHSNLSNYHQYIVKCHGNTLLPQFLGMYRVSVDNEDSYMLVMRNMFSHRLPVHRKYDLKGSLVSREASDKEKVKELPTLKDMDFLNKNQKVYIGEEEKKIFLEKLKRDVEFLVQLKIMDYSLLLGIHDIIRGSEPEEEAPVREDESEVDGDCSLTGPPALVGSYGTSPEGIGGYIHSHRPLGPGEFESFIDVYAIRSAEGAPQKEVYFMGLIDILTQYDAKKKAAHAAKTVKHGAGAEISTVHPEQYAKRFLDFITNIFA
As to the kind of experiment: Inhibition of PI5P4Kgamma (unknown origin).

Test [2] addresses T2, Phosphatidylinositol 5-phosphate 4-kinase type-2 beta (Homo sapiens, UniProt P78356).
T2 sequence (P78356 whole entry): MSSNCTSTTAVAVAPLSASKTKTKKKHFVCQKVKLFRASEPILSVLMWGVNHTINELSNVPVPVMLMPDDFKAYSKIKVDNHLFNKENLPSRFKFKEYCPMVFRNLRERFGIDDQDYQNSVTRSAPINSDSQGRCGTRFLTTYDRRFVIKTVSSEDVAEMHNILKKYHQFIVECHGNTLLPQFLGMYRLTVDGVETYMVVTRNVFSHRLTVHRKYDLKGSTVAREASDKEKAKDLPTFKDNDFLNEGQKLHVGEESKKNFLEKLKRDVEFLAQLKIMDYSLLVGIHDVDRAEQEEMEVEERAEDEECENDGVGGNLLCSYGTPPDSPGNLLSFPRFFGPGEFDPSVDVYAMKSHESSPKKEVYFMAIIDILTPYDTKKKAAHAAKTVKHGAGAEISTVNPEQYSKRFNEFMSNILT
As to the kind of experiment: Inhibition of PI5P4Kbeta (unknown origin) incubated for 15 mins in presence of ATP by ADP-Glo assay. Background: ADP-Glo turns the ADP formed in a reaction into a luminescent signal.

The target in test [3] is T3, Phosphatidylinositol 5-phosphate 4-kinase type-2 alpha (Homo sapiens, UniProt P48426).
T3 sequence (P48426 whole entry): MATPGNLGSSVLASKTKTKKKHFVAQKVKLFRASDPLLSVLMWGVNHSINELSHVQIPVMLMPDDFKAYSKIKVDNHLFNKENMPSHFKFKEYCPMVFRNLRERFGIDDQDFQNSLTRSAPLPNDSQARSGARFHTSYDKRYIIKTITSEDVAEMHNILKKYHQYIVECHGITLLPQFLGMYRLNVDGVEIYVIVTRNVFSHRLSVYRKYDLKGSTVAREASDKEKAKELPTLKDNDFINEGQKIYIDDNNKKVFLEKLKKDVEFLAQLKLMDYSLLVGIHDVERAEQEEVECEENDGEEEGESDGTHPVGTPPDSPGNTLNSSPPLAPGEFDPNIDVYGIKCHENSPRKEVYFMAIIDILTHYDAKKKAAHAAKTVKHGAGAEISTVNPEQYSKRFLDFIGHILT
As to the kind of experiment: Inhibition of PI5P4Kalpha (unknown origin) incubated for 15 mins in presence of ATP by ADP-Glo assay.

Turning to `Cn1nnnc1Sc1ncnc2scc(-c3cccc(S(C)(=O)=O)c3)c12`, the midpoint of inhibition in test [1], the IC50, lay at 15.8 µM.
With `CN(C)C/C=C/C(=O)Nc1cccc(NC(=O)N2CCCC(Nc3cc(-c4cnc5[nH]ccc5c4)ncn3)C2)c1` (stereo unspecified), the IC50 entry in test [2] and in test [3] was “Not Active” in each case.
With `Cc1ccc(-n2ccc3c(Nc4cccc(NC(=O)c5ccc(NC(=O)/C=C/CN(C)C)cc5)c4)ncnc32)cc1`, the half-maximal inhibitory concentration (IC50) in test [2] (read-out: IC50) was determined as 9.9 µM; in test [3] (read-out: IC50), 1.34 µM.
`FC(F)(F)c1ccccc1-c1nc(NCc2cccs2)c2ccccc2n1` showed a half-maximal inhibitory concentration (IC50) in test [1] of 1 µM.

The IC50 is the point on the concentration scale where inhibition reaches its midpoint.
